From patent US8399416B2, “Method of using heparin binding motif for treating asthma” (National Tsing Hua University, priority 2008, dated 2013)

What was measured:
[1] = tested on: ECP binding to Beas-2B cells; test: Competitive inhibition of MBP-ECP binding to Beas-2B cells (cell ELISA); type: cell-based, human; details: Fifty micrograms per mililiter oligosaccharide; 5 μg/ml MBP-ECP; 4° C.
Description: FIG. 3. Heparin oligosaccharides inhibit ECP binding to cells. […] The amount of MBP-ECP bound to cells without GAG treatment was set to 100%. C, control (cells were incubated with MBP.) The data shown are the means of triplicate experiments.
FIG. 7. Synthetic peptides inhibit ECP binding to cells. […] The data shown are the means of triplicate experiments.
Beas-2B, a human bronchial epithelial cell line, was cultured in RPMI 1640 medium (Sigma-Aldrich) supplemented with heat-inactivated 10% fetal bovine serum (Gibco/Invitrogen, Carlsbad, Calif.).
The ability of MBP-ECP to bind cells in the presence of serial dilutions of oligosaccharides or peptides was determined as described (Fan, T. C., et al. (2007) Traffic 8, 1778-1795). At the present invention, synthetic heparins (dp3-9) were tested for their ability to interfere with ECP binding to Beas-2B cells. Briefly, confluent monolayers of Beas-2B cells in 96-well plates were pretreated with various concentrations of oligosaccharides or peptides in serum-free RPMI 1640 medium at 4° C. for 30 min before incubation with 5 μg/ml MBP-ECP at 4° C. for 1 h. The cells were then washed with ice-cold PBS and fixed with 2% PFA at room temperature for 15 min prior to blocking with 2% BSA/PBS at room temperature for 90 min. The level of bound MBP-ECP was quantified by ELISA analysis. MBP-ECP was detected using mouse monoclonal anti-MBP and goat anti-mouse horseradish peroxidase (HRP)-conjugated secondary antibody, followed by the enhanced chemiluminescence detection system. The amount of MBP-ECP bound to cells without oligosaccharide or peptide treatment was set to 100%.

ECP = molecular target: T1, ECP (Homo sapiens, UniProt P12724); test: FACE analysis of ECP binding to heparin oligosaccharides; details: AMAC-labeled oligosaccharide incubated with ECP, 1% agarose gel
T1 construct: His6 (C); made in house; host or cells: E. coli BL21-CodonPlus (DE3)
T1 sequence (P12724 28-160): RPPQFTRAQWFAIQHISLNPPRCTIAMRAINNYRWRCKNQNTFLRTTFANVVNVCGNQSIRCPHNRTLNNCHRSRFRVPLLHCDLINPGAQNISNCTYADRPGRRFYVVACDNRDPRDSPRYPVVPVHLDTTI
Description: FIG. 2. FACE analysis to evaluate binding of ECP to various sugar-containing substrates. A, AMAC-labeled LMWH was incubated with or without ECP in PBS for 10 min at 25° C., and the binding reaction products were separated on a 1% agarose gel. The numbers above the gel indicate the molar ratio of ECP to LMWH. B, Representative oligosaccharide binding pattern of ECP. AMAC-labeled heparin dp3 (10.8 nmol), dp5 (3.3 nmol), dp7 (1.4 nmol), dp9 (1.1 nmol), LMWH (0.03 nmol) and PI-88 (0.03 nmol) were incubated with or without 10-fold molar excess of ECP, and the binding reaction products separated on a 1% agarose gel. C, Representative oligosaccharide binding pattern of EDN. AMAC-labeled heparin dp3 (10.8 nmol), dp5 (3.3 nmol), dp7 (1.4 nmol), dp9 (1.1 nmol), LMWH (0.03 nmol) and PI-88 (0.03 nmol) were incubated with or without 10-fold molar excess of ECP, and the binding reaction products separated on a 1% agarose gel.
Thus, the minimal heparin length (or disaccharide unit) required to interact with ECP was investigated by FACE (Fluorescence-assisted carbohydrate electrophoresis).
Initially, ECP was co-incubated with LMWH at various molar ratios, and the binding products were analyzed by gel electrophoresis. […]

ECP wt = molecular target: T2, ECP wt (Homo sapiens, UniProt P12724); test: Intrinsic tryptophan fluorescence titration of ECP wt with heparin oligosaccharides; type: binding; details: PBS at 25° C., read-out: Kd, ECP wt
T2 construct: His6 (C); made in house; host or cells: E. coli BL21-CodonPlus (DE3)
T2 sequence (P12724 28-160): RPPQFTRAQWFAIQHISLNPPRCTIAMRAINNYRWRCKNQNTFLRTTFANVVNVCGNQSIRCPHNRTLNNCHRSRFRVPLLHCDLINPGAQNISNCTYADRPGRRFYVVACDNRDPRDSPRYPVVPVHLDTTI
Description: (§1) FIG. 5. ITFE profiles of ECP wt and mt1 with dp5. Tryptophan titration emission spectra of […] ECP wt or mt1 bound with dp5. The emission spectra at 340 nm were recorded. The resulting isotherms were fitted by nonlinear regression least-squares computer fit using the KaleidaGraph Synergy Software. ΔF, the relative fluorescence change, equals F0−Fobs, where F0 and Fobs represent the initial and observed fluorescence values, respectively.
(§2) The binding affinities of wild-type and mutant ECP for heparin oligosaccharides were subsequently monitored by intrinsic tryptophan fluorescence titration (Lau, E. K., et al. (2004) The Journal of biological chemistry 279, 22294-22305).
(§3) Binding of ECP to heparin was monitored by changes in intrinsic tryptophan fluorescence emission (IFTE). ECP (200 nM) in PBS at 25° C. was titrated with small aliquots of a high concentration of pentasaccharides with minimal dilution (<2%). Protein fluorescence measurements were recorded 2 min after each addition on a Hitachi 8000 spectrofluorimeter at emission wavelength of 340 nm using an excitation wavelength of 280 nm. ΔF, the relative fluorescence change, equals F0−Fobs, where F0 and Fobs represent the initial and observed fluorescence values, respectively. […]

ECP mt1 = molecular target: T3, ECP mt1 (Homo sapiens, UniProt P12724, K65A/R61A/R63A/W62A); test: Intrinsic tryptophan fluorescence titration of ECP mt1 with heparin oligosaccharides; type: binding; details: PBS at 25° C., read-out: Kd, ECP mt1
T3 construct: recombinant mature ECP was injected into the rat circulation; His6 (C); made in house; host or cells: E. coli BL21-CodonPlus(DE3)
T3 sequence (P12724 28-160 R61A/W62A/R63A/K65A): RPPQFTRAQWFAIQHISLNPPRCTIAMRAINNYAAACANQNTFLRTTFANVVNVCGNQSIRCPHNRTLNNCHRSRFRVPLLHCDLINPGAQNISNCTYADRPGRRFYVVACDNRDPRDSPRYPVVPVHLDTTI
Description: as §1
Amino acid residues R34, W35, R36, and K38 of ECP were simultaneously substituted to alanine using QuickChange site-directed mutagenesis (Stratagene, La Jolla, Calif.) and the resultant mutant was named ECP mt1. […]
as §2
Binding of ECP to heparin was monitored by changes in intrinsic tryptophan fluorescence emission (IFTE). […] Protein fluorescence measurements were recorded 2 min after each addition on a Hitachi 8000 spectrofluorimeter at emission wavelength of 340 nm using an excitation wavelength of 280 nm. ΔF, the relative fluorescence change, equals F0−Fobs, where F0 and Fobs represent the initial and observed fluorescence values, respectively. […]

C1 peptide = C1 peptide (Homo sapiens, UniProt P12724); test: Tryptophan fluorescence titration of C1 peptide with heparin oligosaccharides; type: binding; details: 1 μM peptide; tryptophan fluorescence at 340 nm; read-out: Kd, C1 peptide
Description: FIG. 10. Titration profiles of synthetic peptides by synthetic heparin oligosaccharides. Titrations were carried out on 1 μM peptides in the presence of heparin oligosaccharides. The Kd of each peptide-oligosaccharide interaction was determined by measuring the fluorescence change of intrinsic tryptophan at 340 nm. Data were fitted to a single-binding-site curve using nonlinear least-squares analysis.
as §3

[2] = AMAC-labeled LMWH, increasing peptide concentrations, room temperature 15 min
Description: FIG. 9. FACE analysis of synthetic peptides. AMAC-labeled LMWH were incubated without or with increasing concentrations of C1, TAT, D1 and R1 peptides at room temperature for 15 min. Samples were loaded and separated by agarose gel electrophoresis as described for FIG. 2.
Synthetic heparin oligosaccharide (FIG. 1) (Lee, C. J., et al. (2004) J Am Chem Soc 126, 476-477), low molecular weight heparin (LMWH) and PI-88 (kindly provided by Progen Inc., Australia) were labeled with 2-aminoacridone (AMAC) as described (Calabro, A., et al. (2000) Glycobiology 10, 273-281). AMAC-oligosaccharide and proteins were incubated at room temperature for 15 min, loaded onto 1% gels and electrophoresed as described (Holmes, O., et al. (2007) J Mol Biol 367, 395-408).
In addition, because EDN contains a conventional heparin binding sequence, the corresponding peptide, D1 (SEQ ID NO: 4), was also synthesized and tested.

[3] = tested on: Beas-2B cell surface heparan sulfate; details: 4° C. for 30 min
Description: Human Beas-2B cells were incubated with synthetic peptide (A, TAT; B, D1) at 4° C. for 30 min and then washed, fixed and analyzed. Synthetic peptide was identified with mouse anti-biotin monoclonal antibody and FITC-conjugated goat anti-mouse antibody. The distribution of synthetic peptide was examined by confocal microscopy.
To investigate whether the heparin binding QRRCK motif on EDN, corresponding to the “RWRCK” motif on ECP (SEQ ID NO: 8), was directly responsible for heparan sulfate binding on cell surface, Beas-2B cell-peptide binding was conducted using a synthetic peptide, D1 (SEQ ID NO: 4), and a positive control, TAT (SEQ ID NO: 6) purchased from Genemed Synthesis (South San Francisco, Calif.).

[4] = PBS buffer at 25° C.; HMWH 10-20 μM
Description: FIG. 11. Isothermal titration calorimetry of heparin-peptide interaction. The top panels show the differential power time course. Raw data for sequential 6-μl injections of each synthetic peptide in PBS buffer at 25° C. TAT (positive control), B, R1 (negative control), C, C1, and D, D1 into the sample cell containing 1.4 ml HMWH solution (10-20 μM). The total heat released in each injection is proportional to the area under the corresponding peak. […] The solid line represents a non-linear least squares of the reaction heat for the injection.

Beas-2B cells = details: biotinylated peptides, 1 h at 4° C.
Description: FIG. 7. Synthetic peptides inhibit ECP binding to cells. A, Beas-2B cells were preincubated with peptides in RPMI 1640 medium for 30 min at 4° C. before incubation with MBP-ECP for an additional 1 h. After treatment, the cells were washed with PBS and fixed with PFA. The level of bound MBP-ECP was assessed by ELISA. The amount of MBP-ECP bound to cells without peptide treatment was set to 100%. The data shown are the means of triplicate experiments. B, Beas2-B cells were incubated with biotinylated peptides for 1 h at 4° C. The amount of peptides bound to cells was assessed as for FIG. 3.
To investigate whether the RWRCK (SEQ ID NO: 8) motif is directly responsible for heparin binding, cell ELISA was conducted using a synthetic peptide, C1 (SEQ ID NO: 3), along with a positive control peptide derived from HIV-TAT, TAT (SEQ ID NO: 6) (Vives, E., et al. (1997) The Journal of biological chemistry 272, 16010-16017; Ziegler, A. and Seelig, J. (2004) Biophysical journal 86, 254-263). […] Therefore, synthetic peptides with heparin binding activity may compete with ECP for cellular binding. Furthermore, the cell surface binding ability of peptides was tested using cell ELISA assay.

Beas-2B cell line = details: data taken from reference (Fan et al. 2007), read-out: IC50 for cytotoxic ECP; cited from earlier work

In the case of CO[C@H]1O[C@H](COS(=O)(=O)O)[C@@H](O[C@@H]2O[C@@H](C(=O)O)[C@@H](O[C@H]3O[C@H](COS(=O)(=O)O)[C@@H](O[C@@H]4O[C@@H](C(=O)O)[C@@H](O[C@H]5O[C@H](COS(=O)(=O)O)[C@@H](O)[C@H](O)[C@H]5NS(=O)(=O)O)[C@H](O)[C@H]4OS(=O)(=O)O)[C@H](O)[C@H]3NS(=O)(=O)O)[C@H](O)[C@H]2OS(=O)(=O)O)[C@H](O)[C@H]1NS(=O)(=O)O [dp5], the “inhibition of ECP binding to cells” value [1] is reported as 50%, the “binding to ECP (FACE)” value (ECP) is reported as “shortest heparin fragment that retained the ability to bind ECP” and the Kd (ECP wt) is reported as 140 nM. For the same molecule, the Kd (ECP mt1) was 568 nM and the Kd (C1 peptide) was 275 nM.

With NYQRRCKNQNK-biotin [D1] the “interaction with LMWH (FACE)” value [2] was “bound heparin as tightly as C1”, the “peptide binding to cell surface (confocal microscopy)” value [3] was “bound to Beas-2B cell surface heparan sulfate” and the “heat release on binding to HMWH (ITC)” value [4] was “exothermal reaction modes were clearly observed”. For the same molecule, the “cell surface binding ability of peptides” value (Beas-2B cells) was “bound to the cell surface”.

B1: ECP wt: Recombinant human eosinophil cationic protein with C-terminal His6 tag, expressed in E. coli (protein, UniProt P12724 28-160, looked up)
Eosinophil cationic protein: RPPQFTRAQWFAIQHISLNPPRCTIAMRAINNYRWRCKNQNTFLRTTFANVVNVCGNQSIRCPHNRTLNNCHRSRFRVPLLHCDLINPGAQNISNCTYADRPGRRFYVVACDNRDPRDSPRYPVVPVHLDTTI
modifications: C-terminal His6 tag
notes: Recombinant human eosinophil cationic protein with C-terminal His6 tag, expressed in E. coli
For B1, the IC50 (Beas-2B cell line) is given as 16000 nM.
